Here are results for one compound from US20260083843A1, “IMMUNE CELLS TARGETING EPCAM AND MEDICAL USE THEREOF” (SUZHOU IMMUNOFOCO BIOTECHNOLOGY CO., LTD, priority 2022, published 2026).

This experiment concerns MKN-45-luc. Nature of the experiment: Abdominal cavity metastasis model of gastric cancer. The class given is in vivo, NCG mice. Conditions: single dose of 1.5 mg/kg i.p., Day 0; FIG. 3. The method, then:
To study whether EpCAM-CAR-T (the amino acid sequence of the chimeric antigen receptor of EpCAM-CAR-T is set forth in SEQ ID NO: 16) can clear abdominal metastatic tumors of gastric cancer and whether the chemotherapeutic drug docetaxel can enhance the efficacy of CAR-T, we constructed an abdominal cavity metastasis model of gastric cancer based on a gastric cancer cell line MKN-45-luc. Modeling: human gastric cancer cells MKN-45-luc were cultured in an RPMI-1640 culture medium with 10% FBS in an incubator at 37° C. with 5% CO2. Before continuous cell culturing for ten generations, the cells were inoculated into the abdominal cavity of mice, about 1.5×10^6 MKN-45-luc cells were resuspended in PBS, and inoculated into NCG mice by intraperitoneal injection in a volume of […]. Grouping and administration: 7 days after the inoculation, the growth of tumor cells in the abdominal cavity was detected using a small animal in vivo imaging fluorometer. The mice were randomly grouped according to the body weight and tumor size (fluorescence intensity), with 5 animals in each group, for a total of 6 groups. The day of grouping was defined as day 0.

With `CC(=O)O[C@@]12CO[C@@H]1C[C@H](O)[C@@]1(C)C(=O)[C@H](O)C3=C(C)[C@@H](OC(=O)[C@H](O)[C@@H](NC(=O)OC(C)(C)C)c4ccccc4)C[C@@](O)([C@@H](OC(=O)c4ccccc4)[C@H]21)C3(C)C` [docetaxel], the efficacy result is listed as “did not produce significant efficacy”.
